Test results published in patent US20240376086A1, “SOLID FORM OF RHO-ASSOCIATED PROTEIN KINASE INHIBITOR OR SOLVATE THEREOF, PREPARATION METHOD AND USE THEREOF” (BEIJING TIDE PHARMACEUTICAL CO., LTD., priority 2021, published 2024).

What was measured:
Type in all cases: physicochemical
[1] = Solid hygroscopicity test; conditions: 25° C.±1° C., 80%±2% relative humidity, 24 hours
Description: Experimental Example 3: Solid Hygroscopicity Test
100 mg of Crystalline Form II of Compound A anhydrate and 100 mg of Crystalline Form I of Compound A monohydrate were precisely weighed. The two samples were placed at 25° C.±1° C. and 80%±2% relative humidity for 24 hours. The weight of the samples was then measured and the percentage weight increase was calculated.

[2] = Solid heat stability test (heating in DSC, then XRPD)
Description: Experimental Example 2: Solid Heat Stability Test
In a differential scanning calorimeter, samples of Crystalline Form I of Compound A monohydrate were heated at a rate of 10° C./min to 150° C. and 210° C., respectively, and then analyzed by X-ray powder diffraction.

[3] = Solid stability test (XRPD after storage)
Description: Experimental Example 1: Solid Stability Test
Two samples of Crystalline Form II of Compound A anhydrate were placed in environments of 40° C./75% RH and 60° C./90% RH for 7 days.

Structure (SMILES) | weight increase percentage (hygroscopicity) [1] [%] | crystalline form by XRPD after heat treatment ([2]; heated at 10° C./min to 150° C.) | crystalline form by XRPD after heat treatment ([2]; heated at 10° C./min to 210° C.) | change in the crystalline form by XRPD analysis ([3]; 40° C./75% RH for 7 days) | change in the crystalline form by XRPD analysis ([3]; 60° C./90% RH for 7 days)
Cn1c(C(=O)C2CC(F)(F)C2)cc2ccc(-c3nccc(Nc4ccc(-c5cn[nH]c5)cc4)n3)cc21 [Crystalline Form I of Compound A monohydrate] | 3.62 | remained unchanged | converted to crystalline form II of Compound A anhydrous |  | 
Cn1c(C(=O)C2CC(F)(F)C2)cc2ccc(-c3nccc(Nc4ccc(-c5cn[nH]c5)cc4)n3)cc21 [Crystalline Form II of Compound A anhydrate] | 0.69 |  |  | no change in the crystalline form | no change in the crystalline form
